Experimental data taken from PMC5740381 (Antimicrobial Agents and Chemotherapy, 2017).
Like-named read-outs stand apart in the source and are kept apart here.

What was measured:
[1] = test system: HCV subgenomic stable replicon GT2b; assay: Stable HCV replicon luciferase assay in Huh-7 cells; type: cell-based; conditions: Hepatitis C virus, 0% human plasma, read-out: Mean EC50 ± SD
Source text: (§1) Five of these nine cell lines have been described previously, including those transfected with genotypes 1a H77, 1b Con1, 3a, 4a, and 6a ([28]). […] The genotype 2b and 6e NS3 sequences were each synthetically constructed based on a consensus sequence derived from the alignment of 15 genotype 2b and 4 genotype 6e sequences, respectively. All replicon constructs were bicistronic subgenomic replicons similar to those described by Bartenschlager and coworkers, and the replicon cell lines were generated by introducing these constructs into cells of an Huh-7 human hepatoma-derived cell line ([50]). The inhibitory effect of the PIs on HCV replication in replicon cells was determined in Dulbecco's modified Eagle medium containing 5% fetal bovine serum with or without 40% human plasma (Bioreclamation, Westbury, NY). The EC50s were determined using nonlinear regression curve fitting as described previously ([33]).

HCV genotype 4a replicon = assay: Transient replicon assay with engineered substitutions; type: cell-based, Hepatitis C virus
Experimental: (§2) Mutagenesis was performed using a Change-IT multiple-mutation site-directed mutagenesis kit (USB, Cleveland, OH) or by cloning a synthesized DNA fragment encoding the amino acid substitution(s). The genotype 1a and 1b replicon shuttle vectors used for the introduction of the substitutions of interest in the NS3, NS5A, or NS5B gene for transient-transfection assays have been described previously ([28], [33]). The replicon shuttle vectors used for the introduction of substitutions in NS3 genes from other genotypes were similar to the stable replicon cell line constructs described above, except for the absence of the neo gene. After mutagenesis, the plasmids were linearized and RNA was transcribed and then used to transfect Huh-7 cells. Inhibition of HCV replication by the HCV inhibitors was measured by luciferase assay, as described above. Replication efficiency was calculated as a percentage of wild-type replication, as described previously ([28]).

HCV genotype 2b replicon = assay: as above; type: cell-based, Hepatitis C virus
Experimental: as §2

HCV genotype 6a replicon = assay: as above; type: cell-based, Hepatitis C virus
Experimental: as §2

HCV genotype 3a replicon = assay: as above; type: cell-based, Hepatitis C virus
Experimental: as §2

HCV genotype 4d replicon = assay: as above; type: cell-based, Hepatitis C virus
Experimental: as §2

[2] = test system: HCV subgenomic stable replicon GT6a; assay: Stable HCV replicon luciferase assay in Huh-7 cells; type: cell-based, Hepatitis C virus; conditions: read-out: Mean EC50 ± SD
Source text: (§3) . Five of these nine cell lines have been described previously, including those transfected with genotypes 1a H77, 1b Con1, 3a, 4a, and 6a ([28]). The other four cell lines were established by transfecting cells with a nonchimeric genotype 2a JFH-1 replicon (GenBank accession number AB047639), two genotype 2a JFH-1 chimeric replicons containing either a genotype 2b NS3 protease domain (N-terminal 251 amino acids) or a sequence encoding full-length NS3 through the first 39 amino acids of NS5B from genotype 5a (strain SA13), and one chimeric replicon with a genotype 1b Con1 backbone containing full-length NS3 and NS4A sequences from genotype 6e. The genotype 2b and 6e NS3 sequences were each synthetically constructed based on a consensus sequence derived from the alignment of 15 genotype 2b and 4 genotype 6e sequences, respectively. All replicon constructs were bicistronic subgenomic replicons similar to those described by Bartenschlager and coworkers, and the replicon cell lines were generated by introducing these constructs into cells of an Huh-7 human hepatoma-derived cell line ([50]). The inhibitory effect of the PIs on HCV replication in replicon cells was determined in Dulbecco's modified Eagle medium containing 5% fetal bovine serum with or without 40% human plasma (Bioreclamation, Westbury, NY). The EC50s were determined using nonlinear regression curve fitting as described previously ([33]).

[3] = test system: HCV subgenomic stable replicon GT4a; assay: as above; type: cell-based, Hepatitis C virus; conditions: read-out: Mean EC50 ± SD
Source text: as §3

[4] = test system: HCV subgenomic stable replicon GT3a; assay: microbe, parasite or virus in culture; type: cell-based, Hepatitis C virus; conditions: read-out: Mean EC50 ± SD
Source text: as §1

HCV genotype 1a replicon = assay: Transient replicon assay with engineered substitutions; type: cell-based, Hepatitis C virus; conditions: read-out: Mean EC50 ± SD
Experimental: as §2

HCV genotype 2a replicon = assay: as above; type: cell-based, Hepatitis C virus; conditions: read-out: Mean EC50 ± SD
Experimental: as §2

HCV genotype 5a replicon = assay: as above; type: cell-based, Hepatitis C virus; conditions: 5a wild type, transient transfection; read-out: Mean EC50 ± SD
Experimental: as §2

[5] = test system: HCV subgenomic stable replicon GT6e; assay: microbe, parasite or virus in culture; type: cell-based, Hepatitis C virus; conditions: 0% human plasma, read-out: Mean EC50 ± SD
Source text: as §1

[6] = Hepatitis C virus, Huh-7, 0% human plasma

For `CC(C)(C)[C@@H]1NC(=O)O[C@@H]2CCC[C@H]2OC/C=C/C(F)(F)c2nc3ccccc3nc2O[C@@H]2C[C@@H](C(=O)N[C@]3(C(=O)NS(=O)(=O)C4(C)CC4)C[C@H]3C(F)F)N(C2)C1=O` [Glecaprevir, (3aR,7S,10S,12R,21E,24aR)-7-tert-butyl-N-[(1R,2R)-2-(difluoromethyl)-1-{[(1-methylcyclopropyl)sulfonyl]carbamoyl}cyclopropyl]-20,20-difluoro-5,8-dioxo-2,3,3a,5,6,7,8,11,12,20,23,24a-dodecahydro-1H,10H-9,12-methanocyclopenta[18,19][1,10,17,3,6]trioxadiazacyclononadecino[11,12-b]quinoxaline-10-carboxamide], the EC50 [1] was 4.6 ± 1.2 nM, the EC50 (HCV genotype 4a replicon; Hepatitis C virus, read-out: Mean EC50 ± SD, 4a NS3 A156T) was 962 ± 374 nM and the EC50 (HCV genotype 4a replicon; Hepatitis C virus, read-out: Mean EC50 ± SD, 4a NS3 A156V) was 2080 nM. The EC50 (HCV genotype 4a replicon; Hepatitis C virus, read-out: Mean EC50 ± SD, 4a NS3 D168H) was 15 ± 6.1 nM, the EC50 (HCV genotype 4a replicon; Hepatitis C virus, read-out: Mean EC50 ± SD, 4a NS3 D168V) was 6.5 ± 3 nM and the EC50 (HCV genotype 4a replicon; Hepatitis C virus, read-out: Mean EC50 ± SD, 4a NS3 R155C) was 1.7 ± 0.47 nM. It also gave an EC50 (HCV genotype 4a replicon; Hepatitis C virus, read-out: Mean EC50 ± SD, 4a wild type, transient transfection) of 0.67 nM, an EC50 (HCV genotype 2b replicon; Hepatitis C virus, read-out: Mean EC50 ± SD, 2b NS3 A156T) of 460 ± 172 nM and an EC50 (HCV genotype 2b replicon; Hepatitis C virus, read-out: Mean EC50 ± SD, 2b NS3 A156V) of 4510 nM. It also gave an EC50 (HCV genotype 2b replicon; Hepatitis C virus, read-out: Mean EC50 ± SD, 2b NS3 D168A) of 3.9 ± 1 nM, an EC50 (HCV genotype 2b replicon; Hepatitis C virus, read-out: Mean EC50 ± SD, 2b NS3 D168E) of 6.6 ± 1.8 nM and an EC50 (HCV genotype 2b replicon; Hepatitis C virus, read-out: Mean EC50 ± SD, 2b NS3 D168V) of 9.1 ± 1.2 nM. For the same molecule, the EC50 (HCV genotype 2b replicon; Hepatitis C virus, read-out: Mean EC50 ± SD, 2b wild type, transient transfection) was 3.1 nM, the EC50 (HCV genotype 6a replicon; Hepatitis C virus, read-out: Mean EC50 ± SD, 6a NS3 D168A) was 12 ± 5.8 nM and the EC50 (HCV genotype 6a replicon; Hepatitis C virus, read-out: Mean EC50 ± SD, 6a NS3 D168H) was 22 ± 5.7 nM. The EC50 (HCV genotype 6a replicon; Hepatitis C virus, read-out: Mean EC50 ± SD, 6a NS3 D168V) was 5.8 ± 2.2 nM, the EC50 (HCV genotype 6a replicon; Hepatitis C virus, read-out: Mean EC50 ± SD, 6a wild type, transient transfection) was 0.15 nM and the EC50 (HCV genotype 3a replicon; Hepatitis C virus, read-out: Mean EC50 ± SD, 3a NS3 A156G) was 909 ± 349 nM. For the same molecule, the EC50 (HCV genotype 3a replicon; Hepatitis C virus, read-out: Mean EC50 ± SD, 3a NS3 Q168R) was 30 ± 10 nM, the EC50 (HCV genotype 3a replicon; Hepatitis C virus, read-out: Mean EC50 ± SD, 3a wild type, transient transfection) was 0.55 nM and the EC50 (HCV genotype 4d replicon; Hepatitis C virus, 96 h, read-out: Mean EC50 ± SD, 4d wild type, transient transfection) was 0.15 ± 0.04 nM. The EC50 [2, 6] was 0.86 ± 0.11 nM, the EC50 [3, 6] was 2.8 ± 0.41 nM and the EC50 [4, 6] was 1.9 ± 0.62 nM.

`C=C[C@@H]1C[C@]1(NC(=O)[C@@H]1C[C@@H]2CN1C(=O)[C@H](C(C)(C)C)NC(=O)O[C@@H]1C[C@H]1CCCCCc1nc3ccc(OC)cc3nc1O2)C(=O)NS(=O)(=O)C1CC1` [Grazoprevir] gave an EC50 (HCV genotype 1a replicon; 1a NS3 A156T) of 92 ± 6 nM, an EC50 (HCV genotype 1a replicon; 1a NS3 D168E) of 4.6 ± 0.66 nM and an EC50 (HCV genotype 1a replicon; 1a NS3 D168V) of 30 ± 13 nM. The EC50 (HCV genotype 1a replicon; 1a NS3 F43L) was 0.19 ± 0.05 nM, the EC50 (HCV genotype 1a replicon; 1a NS3 Q80K) was 0.25 ± 0.09 nM and the EC50 (HCV genotype 1a replicon; 1a NS3 R155K) was 0.59 ± 0.19 nM. For the same molecule, the EC50 (HCV genotype 1a replicon; 1a NS3 V36M) was 0.27 ± 0.06 nM, the EC50 (HCV genotype 1a replicon; 1a NS3 V55I) was 0.1 ± 0.02 nM and the EC50 (HCV genotype 1a replicon; 1a NS3 Y56H) was 2.2 ± 0.73 nM. For the same molecule, the EC50 (HCV genotype 1a replicon; 1a wild type, transient transfection) was 0.14 ± 0.06 nM, the EC50 (HCV genotype 4a replicon; 4a NS3 A156T, read-out: Mean EC50 ± SD) was 296 ± 22 nM and the EC50 (HCV genotype 4a replicon; 4a NS3 A156V, read-out: Mean EC50 ± SD) was 169 ± 27 nM. For the same molecule, the EC50 (HCV genotype 4a replicon; 4a NS3 D168H, read-out: Mean EC50 ± SD) was 25 ± 6.3 nM, the EC50 (HCV genotype 4a replicon; 4a NS3 D168V, read-out: Mean EC50 ± SD) was 13 ± 1.1 nM and the EC50 (HCV genotype 4a replicon; 4a NS3 R155C, read-out: Mean EC50 ± SD) was 2 ± 0.27 nM. It also gave an EC50 (HCV genotype 4a replicon; 4a wild type, transient transfection, read-out: Mean EC50 ± SD) of 0.28 ± 0.04 nM, an EC50 (HCV genotype 2a replicon; 2a NS3 A156T) of 1150 nM and an EC50 (HCV genotype 2a replicon; 2a NS3 A156V) of 1960 nM. The EC50 (HCV genotype 2a replicon; 2a NS3 D168A) was 139 ± 9.4 nM, the EC50 (HCV genotype 2a replicon; 2a NS3 D168E) was 62 ± 10 nM and the EC50 (HCV genotype 2a replicon; 2a NS3 D168V) was 24 ± 0.94 nM. For the same molecule, the EC50 (HCV genotype 2a replicon; 2a wild type, transient transfection) was 10.5 ± 1.4 nM, the EC50 (HCV genotype 2b replicon; 2b NS3 A156T, read-out: Mean EC50 ± SD) was 1560 nM and the EC50 (HCV genotype 2b replicon; 2b NS3 A156V, read-out: Mean EC50 ± SD) was 2890 nM. The EC50 (HCV genotype 2b replicon; 2b NS3 D168A, read-out: Mean EC50 ± SD) was 347 ± 113 nM, the EC50 (HCV genotype 2b replicon; 2b NS3 D168E, read-out: Mean EC50 ± SD) was 35 ± 6 nM and the EC50 (HCV genotype 2b replicon; 2b NS3 D168V, read-out: Mean EC50 ± SD) was 88 ± 19 nM. The EC50 (HCV genotype 2b replicon; 2b wild type, transient transfection, read-out: Mean EC50 ± SD) was 6.1 ± 1.3 nM, the EC50 (HCV genotype 6a replicon; 6a NS3 D168A, read-out: Mean EC50 ± SD) was 103 ± 34 nM and the EC50 (HCV genotype 6a replicon; 6a NS3 D168H, read-out: Mean EC50 ± SD) was 45 ± 4.1 nM. The EC50 (HCV genotype 6a replicon; 6a NS3 D168V, read-out: Mean EC50 ± SD) was 24 ± 1.2 nM, the EC50 (HCV genotype 6a replicon; 6a wild type, transient transfection, read-out: Mean EC50 ± SD) was 0.1 ± 0.02 nM and the EC50 (HCV genotype 3a replicon; 3a NS3 A156G, read-out: Mean EC50 ± SD) was 614 ± 148 nM. It also gave an EC50 (HCV genotype 3a replicon; 3a NS3 Q168R, read-out: Mean EC50 ± SD) of 165 ± 46 nM, an EC50 (HCV genotype 3a replicon; 3a wild type, transient transfection, read-out: Mean EC50 ± SD) of 47 ± 14 nM and an EC50 (HCV genotype 5a replicon) of 0.06 ± 0.02 nM. It also gave an EC50 (HCV genotype 4d replicon; 4d NS3 D168V, read-out: Mean EC50 ± SD) of 2.5 ± 0.08 nM, an EC50 (HCV genotype 4d replicon; 4d wild type, transient transfection, read-out: Mean EC50 ± SD) of 0.18 ± 0.01 nM and an EC50 ([2]; 0% human plasma) of 0.89 ± 0.32 nM. The EC50 ([3]; 0% human plasma) was 1.2 ± 0.31 nM, the EC50 ([4]; 0% human plasma) was 83 ± 18 nM and the EC50 [5] was 0.25 ± 0.01 nM.
